Reference: patent US7767659B2, “Synthesis of naturally occurring ecteinascidins and related compounds” (Pharma Mar, S.A., priority 2002, dated 2010)

What was measured:
A-549 = experiment: cells; details: Homo sapiens, A549, 48 h; for GI50: read-out: A549 GI50; for CC50: read-out: A549 LC50; for IC (TGI): read-out: A549 TGI
In short: (§1)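 Colorimetric SRB read (490 nm) on triplicate wells after 48 h at 37 °C, 5% CO2. Dose range 10 to 10^−8 μg/ml; 5×10^3 cells/well pre-attached 18 h.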

HT-29 = experiment: cells; details: Homo sapiens, HT-29, 48 h; for GI50: read-out: HT29 GI50; for CC50: read-out: HT29 LC50; for IC (TGI): read-out: HT29 TGI
In short: as §1

A-498 = experiment: Inhibition of cells growth by colorimetric assay (SRB)
In short: as §1

DU-145 = experiment: as above; details: Homo sapiens, DU-145, 48 h; for GI50: read-out: DU145 GI50; for CC50: read-out: DU145 LC50; for IC (TGI): read-out: DU145 TGI
In short: as §1

MCF-7 = experiment: as above
In short: as §1

MDA-MB-231 = experiment: as above
In short: as §1

OVCAR-3 = experiment: as above
In short: as §1

SK-MEL-28 = experiment: as above; details: Homo sapiens, SK-MEL-28, 48 h; for GI50: read-out: MEL-28 GI50; for CC50: read-out: MEL-28 LC50; for IC (TGI): read-out: MEL-28 TGI
In short: as §1

SW620 = experiment: as above
In short: as §1

LoVo = experiment: cells; details: Homo sapiens, LoVo, 48 h
In short: as §1

[1] = Inhibition of cells growth by colorimetric assay (SRB); details: human
In short: as §1

HMEC1 = experiment: as above; details: for H-MEC-1 TGI: SRB, 48 hours exposure; for GI50: Homo sapiens, HMEC-1, 48 h, read-out: H-MEC-1 GI50
In short: as §1

IGROV-1 = experiment: as above; details: Homo sapiens, IGROV-1, 48 h
In short: as §1

IGROV-ET = experiment: as above; details: Homo sapiens, 48 h
In short: as §1

K-562 = experiment: as above; details: Homo sapiens, K562, 48 h
In short: as §1

LNCaP = experiment: as above; details: Homo sapiens, LNCaP, 48 h
In short: as §1

LoVo-Dox = experiment: as above; details: Homo sapiens, 48 h
In short: as §1

PANC-1 = experiment: as above; details: Homo sapiens, PANC-1, 48 h
In short: as §1

SK-BR-3 = experiment: as above; details: Homo sapiens, SK-BR-3, 48 h
In short: as §1

SK-OV-3 = experiment: as above
In short: as §1

P-388 cells = experiment: Inhibition of cell growth by counting cells; assay type: cell-based; details: Mus musculus, 72 h; p388 cells, three days of incubation
Description: (§2) The finality of these assays is to interrupt the growth of a “in vitro” tumor cell culture by means a continued exhibition of the cells to the sample to be testing.
(§3) This form of the assay employs 24 well multidishes of 16 mm diameter (Bergeron, 1984; Schroeder, 1981). The tumor cell lines employed are: P-388 (ATCC CCL 46), suspension culture of a lymphoid neoplasm from a DBA/2 mouse; A-549 (ATCC CCL 185), monolayer culture of a human lung carcinoma; HT-29 (ATCC HTB-38), monolayer culture of a human colon carcinoma; MEL-28 (ATCC HTB-72), monolayer culture of a human melanoma and DU-145 (ATCC HTB-81), monolayer culture of a human prostate carcinoma.
(§4) Cells were maintained, in logarithmic phase of growth in Eagle's Minimum Essential Medium, with Earle's Balanced Salts, with non-essential amino acids, with 2.0 mM L-Glutamine, without sodium bicarbonate (EMEM/neaa), supplemented with 10% Fetal Calf Serum (FCS), 10^−2 M. sodium bicarbonate and 0.1 U/1 penicillin G+0.1 g/l streptomycin sulfate.
P-388 cells were seeded into 16 mm diameter wells at 1×10^4 cells per well in 1 ml aliquots of EMEM 5% FCS containing different concentrations of the sample to be tested. […]
For quantifying the activity, after the incubation time, cells are trypsinized and counted in a Coulter Counter ZM. […]

A-549 cells = experiment: Inhibition of cell growth by counting cells; assay type: cell-based; details: Homo sapiens, 72 h; a549 cells, three days of incubation
Description: as §2, §3, §4
(§5) A-549, HT-29, MEL-28 and DU-145 cells were seeded into 16 mm diameter wells at 1×10^4 cells per well in 1 ml aliquots of EMEM 5% FCS containing different concentrations of the sample to be tested. A separate set of cultures without drug was seeded as control of growth, to ensure that cells remained in exponential phase of growth. All determinations are caring out in duplicate. After three days of incubation at 37° C., 5% CO2 in a 98% humid atmosphere cells were stained with 0.1% crystal violet. An approximately IC50 was determined by comparing the growth in wells with drug to the growth in wells control.
(§6) For quantifying the activity, after the incubation time, cells are trypsinized and counted in a Coulter Counter ZM. All counts (net cells per well), represent the average of duplicate wells. % G, percent of growth relative to cultures without drug.
(§7) For this technique, compounds which show IC50 values smaller than 1 μg/ml are selected to continue with further studies.

HT-29 cells = experiment: Inhibition of cell growth by counting cells; assay type: cell-based; details: Homo sapiens, HT-29, 72 h; ht29 cells, three days of incubation
Description: as §2, §3, §4, §5, §6, §7

MEL-28 cells = experiment: Inhibition of cell growth by counting cells; assay type: cell-based; details: Homo sapiens, SK-MEL-28, 72 h; mel28 cells, three days of incubation
Description: as §2, §3, §4, §5, §6, §7

DU-145 cells = experiment: Inhibition of cell growth by counting cells; assay type: cell-based; details: Homo sapiens, DU-145, 72 h; du145 cells, three days of incubation
Description: as §2, §3, §4, §5, §6, §7

## COc1c(C)cc2c(c1O)C1C3[C@@H]4SCC(=O)C(=O)OC[C@@H](c5c6c(c(C)c(OC(C)=O)c54)OCO6)N3[C@@H](O)[C@H](C2)N1C (stereo partly drawn) [Et-594]
A-549
  GI50: 49 nM
  CC50: 654 nM
  IC (TGI): 131 nM
HT-29
  GI50: 49 nM
  CC50: 1630 nM
  IC (TGI): 98 nM
A-498; A498, SRB, 48 hours exposure
  A498 TGI: 3.27E−07 Molar
A-498; Homo sapiens, A498, 48 h, read-out: A498 GI50
  GI50: 81.7 nM
A-498; Homo sapiens, A498, 48 h, read-out: A498 LC50
  CC50: 11400 nM
DU-145
  GI50: 32.7 nM
  CC50: 163 nM
  IC (TGI): 81.7 nM
MCF-7; Homo sapiens, MCF7, 48 h, read-out: MCF GI50
  GI50: 32.7 nM
MCF-7; Homo sapiens, MCF7, 48 h, read-out: MCF LC50
  CC50: 3270 nM
MCF-7; MCF, SRB, 48 hours exposure
  MCF TGI: 9.80E−08 Molar
MDA-MB-231; Homo sapiens, MDA-MB-231, 48 h, read-out: MB231 GI50
  GI50: 32.7 nM
MDA-MB-231; Homo sapiens, MDA-MB-231, 48 h, read-out: MB231 LC50
  CC50: 1630 nM
MDA-MB-231; MB231, SRB, 48 hours exposure
  MB231 TGI: 1.14E−07 Molar
OVCAR-3; Homo sapiens, OVCAR-3, 48 h, read-out: OVCAR GI50
  GI50: 32.7 nM
OVCAR-3; Homo sapiens, OVCAR-3, 48 h, read-out: OVCAR LC50
  CC50: 16300 nM
OVCAR-3; OVCAR, SRB, 48 hours exposure
  OVCAR TGI: 1.14E−07 Molar
SK-MEL-28
  GI50: 32.7 nM
  CC50: 131 nM
  IC (TGI): 65.4 nM
SW620; Homo sapiens, SW-620, 48 h, read-out: SW-620 GI50
  GI50: 32.7 nM
SW620; Homo sapiens, SW-620, 48 h, read-out: SW-620 LC50
  CC50: 3270 nM
SW620; SW-620, SRB, 48 hours exposure
  SW-620 TGI: 9.80E−08 Molar

## COc1cc2c(cc1O)CCN[C@]21CS[C@@H]2c3c(OC(C)=O)c(C)c4c(c3[C@H](COC1=O)N1C[C@@H]3Cc5cc(C)c(OC)c(O)c5C(C21)N3C)OCO4 (stereo partly drawn) [Et-745]
A-549
  GI50: 743 nM
  CC50: 13400 nM
  IC (TGI): 4770 nM
HT-29
  GI50: 522 nM
  CC50: 13400 nM
  IC (TGI): 2650 nM
LoVo; read-out: LOVO GI50
  GI50: 5550 nM
LoVo; read-out: LOVO LC50
  CC50: 13400 nM
LoVo; read-out: LOVO TGI
  IC (TGI): 13400 nM
[1]
  CC50 at 48 h: 13400 nM
DU-145
  GI50: 488 nM
  CC50: 13400 nM
  IC (TGI): 2670 nM
HMEC1
  H-MEC-1 TGI: 3.67E−06 Molar
  GI50: 634 nM
IGROV-1; read-out: IGROV GI50
  GI50: 774 nM
IGROV-1; read-out: IGROV LC50
  CC50: 13400 nM
IGROV-1; read-out: IGROV TGI
  IC (TGI): 3260 nM
IGROV-ET; read-out: IGROV-ET GI50
  GI50: 3700 nM
IGROV-ET; read-out: IGROV-ET LC50
  CC50: 13400 nM
IGROV-ET; read-out: IGROV-ET TGI
  IC (TGI): 8450 nM
K-562; read-out: K562 GI50
  GI50: 884 nM
K-562; read-out: K562 LC50
  CC50: 13400 nM
K-562; read-out: K562 TGI
  IC (TGI): 3900 nM
LNCaP; read-out: LNCAP GI50
  GI50: 652 nM
LNCaP; read-out: LNCAP LC50
  CC50: 9810 nM
LNCaP; read-out: LNCAP TGI
  IC (TGI): 2390 nM
LoVo-Dox; read-out: LOVO-DOX GI50
  GI50: 6250 nM
LoVo-Dox; read-out: LOVO-DOX LC50
  CC50: 13400 nM
LoVo-Dox; read-out: LOVO-DOX TGI
  IC (TGI): 13400 nM
PANC-1; read-out: PANC-1 GI50
  GI50: 1320 nM
PANC-1; read-out: PANC-1 LC50
  CC50: 13400 nM
PANC-1; read-out: PANC-1 TGI
  IC (TGI): 9220 nM
SK-BR-3; read-out: SK-BR3 GI50
  GI50: 629 nM
SK-BR-3; read-out: SK-BR3 LC50
  CC50: 13400 nM
SK-BR-3; read-out: SK-BR3 TGI
  IC (TGI): 3150 nM
SK-MEL-28
  GI50: 602 nM
  CC50: 8620 nM
  IC (TGI): 2210 nM
SK-OV-3; Homo sapiens, SK-OV-3, 48 h, read-out: SK-OV3 GI50
  GI50: 1320 nM
SK-OV-3; Homo sapiens, SK-OV-3, 48 h, read-out: SK-OV3 LC50
  CC50: 13400 nM
SK-OV-3; SK-OV3, SRB, 48 hours exposure
  SK-OV3 TGI: 5.48E−06 Molar

## COc1c(C)cc2c(c1O)[C@@H]1C3[C@@H]4SCC(=O)C(=O)OC[C@@H](c5c6c(c(C)c(OC(C)=O)c54)OCO6)N3[C@@H](C#N)[C@H](C2)N1C (stereo partly drawn) [compound 16]
P-388 cells
  IC50: 16.3 nM
A-549 cells
  IC50: 16.3 nM
HT-29 cells
  IC50: 16.3 nM
MEL-28 cells
  IC50: 16.3 nM

## COc1c(C)cc2c(c1O)[C@@H]1C3[C@@H]4SCC(NC(C)=O)C(=O)OC[C@@H](c5c6c(c(C)c(OC(C)=O)c54)OCO6)N3[C@@H](C#N)[C@H](C2)N1C (stereo partly drawn) [compound 19]
P-388 cells
  IC50: 0.753 nM
A-549 cells
  IC50: 0.753 nM
DU-145 cells
  IC50: 0.753 nM
HT-29 cells
  IC50: 0.753 nM
MEL-28 cells
  IC50: 0.753 nM

## COc1c(C)cc2c(c1O)[C@@H]1C3[C@@H]4SCC(=O)C(=O)NC[C@@H](c5c6c(c(C)c(OC(C)=O)c54)OCO6)N3[C@@H](C#N)[C@H](C2)N1C (stereo partly drawn) [compound 75]
A-549
  GI50: 889 nM
  CC50: 12700 nM
  IC (TGI): 4010 nM
HT-29
  GI50: 330 nM
  CC50: 16100 nM
  IC (TGI): 933 nM
[1]
  CC50 at 48 h: 16100 nM
HMEC1
  H-MEC-1 TGI: 1.64E−06 Molar
  GI50: 279 nM
